Type in all cases: functional
Assay [1] deals with Human alphaherpesvirus 1. Kind of assay: Percent inhibition of herpes simplex type-1 virus at the concentration of 50 uM.
The subject of a further assay is L1210. In words: In vitro inhibitory activity against murine leukemia L1210 cells. Conditions: Mus musculus, read-out: ED50 (the source's name).
The test system of assay [2] is Human alphaherpesvirus 1. Kind of assay: Percent inhibition of herpes simplex type-1 virus at the concentration of 175 uM.
Assay [3] can be described thus: In vitro inhibitory activity against Sarcoma 180 cells. Conditions: Mus musculus, read-out: ED50 (the source's name).
For assay [4], the system named is Human alphaherpesvirus 1. In words: Percent inhibition of herpes simplex type-1 virus at the concentration of 1 uM.
The subject of assay [5] is Human alphaherpesvirus 1. Kind of assay: Percent inhibition of herpes simplex type-1 virus at the concentration of 20 uM.
Assay [6] has as its system Human alphaherpesvirus 1. Kind of assay: Percent inhibition of herpes simplex type-1 virus at the concentration of 10 uM.

pEC50: −log10 of the molar value.

The inhibition is the change of the read-out against control, counted positive when it falls. High values mean a response far below the control, low ones a response near the control.

In the assay with Human alphaherpesvirus 1 [1], `O=c1[nH]c(=O)n([C@H]2C[C@H](O)[C@@H](CO)O2)cc1I` [IDOXURIDINE] showed an inhibition at 50 µM of 99.3%.

Regarding `O=NN(CCCl)C(=O)NCCCl` [CARMUSTINE], the pEC50 in the assay with L1210 is 5.40.

For the compound `CNC(=O)NC1CCc2cc(OC)c(OC)c(OC)c2-c2ccc(SC)c(=O)cc21` (centres undefined), the inhibition at 175 µM with Human alphaherpesvirus 1 [2] was 85%. The results for the pEC50 (with L1210; in assay [3]) were 7.48 and 7.54, respectively.

`COc1cc2c(c(OC)c1OC)-c1ccc(SC)c(=O)cc1C(NC(=O)N(CCCl)N=O)CC2` (centres undefined) came in with an inhibition at 1 µM in the assay with Human alphaherpesvirus 1 [4] of 76%. For the same compound, the pEC50 with L1210 was 7.92; in assay [3], 7.57.

`COc1cc2c(c(OC)c1OC)-c1ccc(SC)c(=O)cc1C(NC(=O)NCCCl)CC2` (centres undefined) showed an inhibition at 20 µM in the assay with Human alphaherpesvirus 1 [5] of 72%. Besides, the pEC50 in the assay with L1210 is 7.80; in assay [3], 7.52.

`COc1cc2c(c(OC)c1OC)-c1ccc(SC)c(=O)cc1C(NC(=O)N(C)N=O)CC2` (centres undefined): the inhibition at 10 µM in the assay on Human alphaherpesvirus 1 [6] was determined as 86%. The figures for the pEC50 (in the assay with L1210; in assay [3]) were 7.74 and 7.59, respectively.
